Experimental findings from US9120812B2, “Pyrimidooxazocine derivatives as mTOR-inhibitors” (SANOFI, priority 2012, dated 2015) are described below.

The target of experiment [1] is mTOR (human recombinant aa mTOR 1360-2549) (Homo sapiens (Human), UniProt P42345). The experiment in a line: mTOR enzymatic test by TR-FRET (phosphorylation of GFP-4EBP1). It counts as biochemical. The gist of the method:
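TR-FRET detection of GFP-4EBP1 phosphorylation by a terbium-labelled anti-phospho-Thr46 antibody. Kinase reaction ran 30 min at room temperature, was quenched with EDTA (10 mM final) plus Tb-antibody (2 nM final) and left 60 min. Emission at 520 and 490 nm after 340 nm excitation, reported as the 520/490 ratio.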
In general terms: TR-FRET usually uses a lanthanide donor and a delayed reading to cut background.

The next experiment has as its target PI3Kα (p110α/p85α) (Homo sapiens (Human), UniProt P42336). The experiment in a line: PI3Kα enzymatic test by measuring the consumption of ATP. The format is biochemical. The gist of the method: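 p110α/p85α (1.7 μg/ml) with 50 μM PIP2 and 2 μM ATP in pH 7.5 Tris buffer with EGTA, MgCl2, Chaps, DTT; reaction 90 min. Remaining ATP measured by luciferin/luciferase luminescence; IC50 from threefold serial dilutions spanning at least 10 000-fold.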

The next experiment relates to U87MG tumour cells. The experiment in a line: Test of in vitro proliferation of U87MG tumour cells. It counts as cell-based. To be noted: Homo sapiens, U-87 MG, 72 h, U87MG cells, 72 hours; read-out: U87 Cell Proliferation IC50. The method, then:
Model 4: Test of in vitro Proliferation of U87MG Tumour Cells.
The cell growth is determined with the reagent CellTiter 96 AQueous One Solution Cell Proliferation Assay from Promega (Cat. No. G3581).

The next experiment relates to Akt-pS473 in U87MG cells. To be noted: Homo sapiens, U-87 MG; for IC50: read-out: U87 Akt-pS473 % Inhibition or IC50, nM (IC50), U87MG cells.
Where [2] appears, read: read-out: U87 Akt-pS473 % Inhibition.

mTOR (human recombinant aa mTOR 1360-2549), sequence (P42345 1360-2549): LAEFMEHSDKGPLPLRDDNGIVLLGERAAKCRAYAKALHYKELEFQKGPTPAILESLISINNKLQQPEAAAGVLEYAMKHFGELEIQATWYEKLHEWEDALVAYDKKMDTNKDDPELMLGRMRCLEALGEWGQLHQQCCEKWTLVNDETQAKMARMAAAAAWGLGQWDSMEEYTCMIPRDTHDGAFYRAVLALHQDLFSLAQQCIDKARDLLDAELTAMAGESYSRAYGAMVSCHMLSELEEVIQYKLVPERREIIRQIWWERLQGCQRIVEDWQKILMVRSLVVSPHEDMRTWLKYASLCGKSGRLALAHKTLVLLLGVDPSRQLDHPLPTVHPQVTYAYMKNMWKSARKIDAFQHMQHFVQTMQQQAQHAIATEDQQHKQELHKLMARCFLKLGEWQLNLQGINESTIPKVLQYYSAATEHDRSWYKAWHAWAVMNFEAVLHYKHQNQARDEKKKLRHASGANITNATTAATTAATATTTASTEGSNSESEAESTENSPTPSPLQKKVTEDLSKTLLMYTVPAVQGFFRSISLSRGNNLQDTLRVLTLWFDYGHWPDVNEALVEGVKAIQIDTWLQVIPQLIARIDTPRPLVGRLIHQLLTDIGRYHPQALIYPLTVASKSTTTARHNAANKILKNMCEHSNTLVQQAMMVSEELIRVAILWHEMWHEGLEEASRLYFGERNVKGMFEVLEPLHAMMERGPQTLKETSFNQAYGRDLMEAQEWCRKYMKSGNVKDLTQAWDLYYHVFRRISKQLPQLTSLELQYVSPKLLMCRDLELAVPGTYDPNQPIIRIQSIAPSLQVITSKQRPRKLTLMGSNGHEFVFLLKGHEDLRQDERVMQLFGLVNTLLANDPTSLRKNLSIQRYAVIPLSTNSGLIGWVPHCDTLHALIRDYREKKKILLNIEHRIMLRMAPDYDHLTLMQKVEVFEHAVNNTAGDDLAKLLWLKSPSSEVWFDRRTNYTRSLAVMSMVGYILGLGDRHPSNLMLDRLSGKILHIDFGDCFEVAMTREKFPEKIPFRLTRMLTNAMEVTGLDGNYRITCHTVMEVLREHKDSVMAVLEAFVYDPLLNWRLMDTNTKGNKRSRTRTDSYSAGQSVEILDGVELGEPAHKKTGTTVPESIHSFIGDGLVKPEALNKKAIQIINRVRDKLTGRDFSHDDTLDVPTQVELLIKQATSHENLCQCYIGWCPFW
PI3Kα (p110α/p85α), sequence (P42336 whole entry): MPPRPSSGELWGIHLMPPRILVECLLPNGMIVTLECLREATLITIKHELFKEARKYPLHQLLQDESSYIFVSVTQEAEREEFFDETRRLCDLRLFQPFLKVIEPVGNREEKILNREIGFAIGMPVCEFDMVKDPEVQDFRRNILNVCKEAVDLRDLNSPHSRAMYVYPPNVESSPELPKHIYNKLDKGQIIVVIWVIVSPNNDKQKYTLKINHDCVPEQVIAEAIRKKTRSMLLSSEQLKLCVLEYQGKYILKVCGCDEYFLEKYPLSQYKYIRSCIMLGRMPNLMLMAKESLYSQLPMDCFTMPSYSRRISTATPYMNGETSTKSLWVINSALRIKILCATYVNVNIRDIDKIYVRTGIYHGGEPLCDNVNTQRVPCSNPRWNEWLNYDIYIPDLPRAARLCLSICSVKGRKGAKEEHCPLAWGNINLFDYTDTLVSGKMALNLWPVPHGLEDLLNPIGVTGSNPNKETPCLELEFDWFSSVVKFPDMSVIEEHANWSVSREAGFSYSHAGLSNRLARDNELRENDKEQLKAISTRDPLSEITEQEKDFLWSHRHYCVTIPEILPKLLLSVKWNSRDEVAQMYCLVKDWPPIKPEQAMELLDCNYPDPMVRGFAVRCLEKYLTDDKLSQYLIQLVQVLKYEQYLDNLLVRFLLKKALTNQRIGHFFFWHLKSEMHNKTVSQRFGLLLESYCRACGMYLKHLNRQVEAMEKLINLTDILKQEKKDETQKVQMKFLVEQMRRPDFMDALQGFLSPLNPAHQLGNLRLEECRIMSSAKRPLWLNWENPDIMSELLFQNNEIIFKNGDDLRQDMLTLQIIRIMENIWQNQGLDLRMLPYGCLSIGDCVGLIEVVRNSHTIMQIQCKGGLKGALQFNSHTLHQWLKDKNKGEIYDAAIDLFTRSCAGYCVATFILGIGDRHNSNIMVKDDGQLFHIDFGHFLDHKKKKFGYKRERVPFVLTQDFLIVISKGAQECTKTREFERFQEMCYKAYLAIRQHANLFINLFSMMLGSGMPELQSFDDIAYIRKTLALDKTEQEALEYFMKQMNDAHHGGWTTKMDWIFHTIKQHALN
PI3Kα (p110α/p85α), sequence (P27986 whole entry partner): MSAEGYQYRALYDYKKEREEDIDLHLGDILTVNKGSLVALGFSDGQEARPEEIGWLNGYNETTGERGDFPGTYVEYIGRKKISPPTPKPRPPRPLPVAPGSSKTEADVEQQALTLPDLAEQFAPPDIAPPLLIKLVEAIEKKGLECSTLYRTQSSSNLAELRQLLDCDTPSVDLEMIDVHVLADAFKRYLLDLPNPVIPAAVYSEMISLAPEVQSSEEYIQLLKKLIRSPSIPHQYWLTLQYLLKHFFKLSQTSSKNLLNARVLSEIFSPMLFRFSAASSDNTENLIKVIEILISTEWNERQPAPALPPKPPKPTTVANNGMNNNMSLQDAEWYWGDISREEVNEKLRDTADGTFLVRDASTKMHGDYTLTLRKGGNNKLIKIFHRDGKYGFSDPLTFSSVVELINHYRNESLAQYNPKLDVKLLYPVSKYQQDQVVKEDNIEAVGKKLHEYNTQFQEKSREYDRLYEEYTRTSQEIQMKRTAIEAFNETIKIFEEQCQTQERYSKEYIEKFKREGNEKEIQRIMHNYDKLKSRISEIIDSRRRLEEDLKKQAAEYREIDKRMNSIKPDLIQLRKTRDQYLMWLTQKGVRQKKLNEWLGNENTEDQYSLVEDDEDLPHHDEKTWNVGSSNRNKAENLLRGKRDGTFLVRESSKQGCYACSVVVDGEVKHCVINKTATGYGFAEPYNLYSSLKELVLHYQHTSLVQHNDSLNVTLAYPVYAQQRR

For orientation: inhibition means how much of the control response was suppressed. `CCN1CC(C)(C)Oc2nc(N3CC4CCC(C3)O4)nc(-c3ccc(NC(=O)Nc4ccc(C(=O)NCC(C)(C)O)cc4)cc3)c2C1=O` [Example 190, 4-(3-{4-[6-Ethyl-8,8-dimethyl-2-(8-oxa-3-azabicyclo[3.2.1]oct-3-yl)-5-oxo-5,6,7,8-tetrahydro-9-oxa-1,3,6-triazabenzocyclohepten-4-yl]phenyl}ureido)-N-(2-hydroxy-2-methylpropyl)benzamide]: the results for the IC50 (in experiment [1]; in the experiment on U87MG tumour cells) were 40 nM and 734 nM, respectively. For the same molecule, on PI3Kα (p110α/p85α), the “PI3Ka IC50” value stood at 927 nM. Also, the inhibition at 3 µM with Akt-pS473 in U87MG cells (setting [2]) was 69%.

With `CCN1CC(C)(C)Oc2nc(N3CCOC[C@@H]3C)nc(-c3ccc(NC(=O)Nc4ccncc4)cc3F)c2C1=O` [Example 12, 1-{4-[6-ethyl-8,8-dimethyl-2-((S)-3-methylmorpholin-4-yl)-5-oxo-5,6,7,8-tetrahydro-9-oxa-1,3,6-triazabenzocyclohepten-4-yl]-3-fluorophenyl}-3-pyridin-4-ylurea], the figures for the IC50 (in experiment [1]; with U87MG tumour cells; in the experiment on Akt-pS473 in U87MG cells) were 17 nM, 121 nM and 43 nM, respectively. Besides, on PI3Kα (p110α/p85α), the “PI3Ka IC50” value worked out at 640 nM.

In the case of `CC[C@H]1COCCN1c1nc2c(c(-c3ccc(NC(=O)NC)c(F)c3)n1)C(=O)N(CC)CC(C)(C)O2` [Example 228, 1-{4-[6-Ethyl-2-((S)-3-ethylmorpholin-4-yl)-8,8-dimethyl-5-oxo-5,6,7,8-tetrahydro-9-oxa-1,3,6-triazabenzocyclohepten-4-yl]-2-fluorophenyl}-3-methylurea], the IC50 in experiment [1] worked out at 70 nM; in the experiment on U87MG tumour cells it was 229 nM; with Akt-pS473 in U87MG cells it was 72 nM. The “PI3Ka IC50” value at PI3Kα (p110α/p85α) was determined as 6600 nM.

`CCN1CC(C)(C)Oc2nc(N3CC4CCC(C3)O4)nc(-c3ccc(NC(=O)Nc4cccc(C(F)(F)F)c4)cc3)c2C1=O` [Example 147, 1-{4-[6-Ethyl-8,8-dimethyl-2-(8-oxa-3-azabicyclo[3.2.1]oct-3-yl)-5-oxo-5,6,7,8-tetrahydro-9-oxa-1,3,6-triazabenzocyclohepten-4-yl]phenyl}-3-(3-trifluoromethylphenyl)urea]: the figures for the IC50 (in experiment [1]; with U87MG tumour cells; in the experiment with Akt-pS473 in U87MG cells) were 182 nM, 297 nM and 28 nM, respectively. For the same molecule, the “PI3Ka IC50” value at PI3Kα (p110α/p85α) was over 10000 nM.

On to `CCN1CC(C)(C)Oc2nc(N3CC4CCC(C3)O4)nc(-c3ccc(NC(=O)Nc4cncc(OC)n4)c(F)c3)c2C1=O` [Example 139, 1-{4-[6-Ethyl-8,8-dimethyl-2-(8-oxa-3-azabicyclo[3.2.1]oct-3-yl)-5-oxo-5,6,7,8-tetrahydro-9-oxa-1,3,6-triazabenzocyclohepten-4-yl]-2-fluorophenyl}-3-(6-methoxypyrazin-2-yl)urea], for which the IC50 was found to be 251 nM in experiment [1], 3010 nM in the experiment on U87MG tumour cells and 721 nM with Akt-pS473 in U87MG cells. Besides, the “PI3Ka IC50” value at PI3Kα (p110α/p85α) was over 10000 nM.

Take `CCN1CC(C)(C)Oc2nc(N3CC4CCC(C3)O4)nc(-c3ccc(NC(=O)OC[C@H](C)O)cc3)c2C1=O` [Example 88, {4-[6-Ethyl-8,8-dimethyl-2-(8-oxa-3-azabicyclo[3.2.1]oct-3-yl)-5-oxo-5,6,7,8-tetrahydro-9-oxa-1,3,6-triazabenzocyclohepten-4-yl]phenyl}carbamic acid (S)-2-hydroxypropyl ester]: the IC50 stood at 198 nM in experiment [1] and 1900 nM in the experiment on U87MG tumour cells. For the same molecule, the “PI3Ka IC50” value on PI3Kα (p110α/p85α) was over 10000 nM. Also, the inhibition at 1 µM in the experiment with Akt-pS473 in U87MG cells (setting [2]) is 65%.

On to `CCN1CC(C)(C)Oc2nc(N3CCOC[C@@H]3C)nc(-c3ccc(NC(=O)Nc4cc(C)nc(C)n4)cc3)c2C1=O` [Example 91, 1-(2,6-Dimethylpyrimidin-4-yl)-3-{4-[6-ethyl-8,8-dimethyl-2-((S)-3-methylmorpholin-4-yl)-5-oxo-5,6,7,8-tetrahydro-9-oxa-1,3,6-triazabenzocyclohepten-4-yl]phenyl}urea], for which the IC50 in experiment [1] amounted to 53 nM; in the experiment on U87MG tumour cells, 410 nM; in the experiment on Akt-pS473 in U87MG cells it was 47 nM. For the same molecule, the “PI3Ka IC50” value at PI3Kα (p110α/p85α) is given as 4640 nM.
